Experimental findings from patent US8093388B2, “3-aza spiro[5,5]undec-8-ene derivatives and their use as monoamine neurotransmitter re-uptake inhibitors” (Neurosearch A/S, priority 2005, dated 2012) are described below.

In data set [1] the target is T1, reuptake of dopamine (DA) in synaptosomes (Rattus norvegicus, UniProt P23977).
T1 construct: in synaptosomes as described in WO 97/16451; from tissue
Nature of the data set: Inhibition of dopamine (DA) reuptake in synaptosomes. The class given is biochemical. The note with it: 3H-DA, read-out: DA-uptake IC50. From the text:
(§1) Compounds of the invention may be tested for their ability to inhibit reuptake of the monoamines dopamine, noradrenaline and serotonin in synaptosomes e.g. such as described in WO 97/30997. Based on the balanced activity observed in these tests the compound of the invention is considered useful for the treatment, prevention or alleviation of a disease or a disorder or a condition of a mammal, including a human, which disease, disorder or condition is responsive to inhibition of monoamine neurotransmitter re-uptake in the central nervous system.
(§2) A number of compounds were tested for their ability to inhibit the reuptake of the monoamine neurotransmitters dopamine (DA) noradrenaline (NA) and serotonine (5-HT) in synaptosomes as described in WO 97/16451.
(§3) The test values are given as IC50 (the concentration (μM) of the test substance which inhibits the specific binding of ^3H-DA, ^3H-NA, or ^3H-5-HT by 50%).

The target in data set [2] is T2, reuptake of noradrenaline (NA) in synaptosomes (Rattus norvegicus, UniProt Q9WTR4).
T2 construct: in synaptosomes as described in WO 97/16451; from tissue
T2 sequence (Q9WTR4 1-597): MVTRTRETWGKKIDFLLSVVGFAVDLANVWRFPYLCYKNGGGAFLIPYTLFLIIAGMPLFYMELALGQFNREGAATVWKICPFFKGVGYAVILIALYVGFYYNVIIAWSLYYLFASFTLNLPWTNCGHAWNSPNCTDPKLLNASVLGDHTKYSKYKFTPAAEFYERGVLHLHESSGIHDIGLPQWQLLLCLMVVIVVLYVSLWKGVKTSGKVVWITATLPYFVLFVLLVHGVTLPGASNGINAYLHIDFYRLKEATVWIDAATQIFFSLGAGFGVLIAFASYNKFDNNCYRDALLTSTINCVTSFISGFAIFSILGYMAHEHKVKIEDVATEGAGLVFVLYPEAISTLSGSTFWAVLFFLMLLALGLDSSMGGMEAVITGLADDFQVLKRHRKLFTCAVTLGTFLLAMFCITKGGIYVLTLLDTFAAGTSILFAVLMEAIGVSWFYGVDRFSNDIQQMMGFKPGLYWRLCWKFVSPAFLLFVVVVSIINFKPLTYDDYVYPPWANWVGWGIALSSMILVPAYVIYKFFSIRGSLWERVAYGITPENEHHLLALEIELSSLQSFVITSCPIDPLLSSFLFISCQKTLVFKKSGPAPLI
The data set can be described thus: Inhibition of noradrenaline (NA) reuptake in synaptosomes. The note with it: 3H-NA, read-out: NA-uptake IC50. The format is biochemical.
From the text: as §1, §2, §3

Data set [3] has as its target T3, reuptake of serotonine (5-HT) in synaptosomes (Rattus norvegicus, UniProt P31652).
T3 construct: in synaptosomes as described in WO 97/16451; from tissue
Nature of the data set: Inhibition of serotonine (5-HT) reuptake in synaptosomes. The format is biochemical.
From the text: as §1, §2, §3

The mark [4] stands for this setting: synaptosomes, 3H-5-HT, read-out: 5-HT-uptake IC50.

Each structure is given as a SMILES string. Where two headings read alike, the source gives them in different places.

Usually melting point stands for the temperature, or range, at which the solid turns liquid. The term IC50 denotes the midpoint of a concentration-inhibition curve.

T3 sequence (P31652 whole entry): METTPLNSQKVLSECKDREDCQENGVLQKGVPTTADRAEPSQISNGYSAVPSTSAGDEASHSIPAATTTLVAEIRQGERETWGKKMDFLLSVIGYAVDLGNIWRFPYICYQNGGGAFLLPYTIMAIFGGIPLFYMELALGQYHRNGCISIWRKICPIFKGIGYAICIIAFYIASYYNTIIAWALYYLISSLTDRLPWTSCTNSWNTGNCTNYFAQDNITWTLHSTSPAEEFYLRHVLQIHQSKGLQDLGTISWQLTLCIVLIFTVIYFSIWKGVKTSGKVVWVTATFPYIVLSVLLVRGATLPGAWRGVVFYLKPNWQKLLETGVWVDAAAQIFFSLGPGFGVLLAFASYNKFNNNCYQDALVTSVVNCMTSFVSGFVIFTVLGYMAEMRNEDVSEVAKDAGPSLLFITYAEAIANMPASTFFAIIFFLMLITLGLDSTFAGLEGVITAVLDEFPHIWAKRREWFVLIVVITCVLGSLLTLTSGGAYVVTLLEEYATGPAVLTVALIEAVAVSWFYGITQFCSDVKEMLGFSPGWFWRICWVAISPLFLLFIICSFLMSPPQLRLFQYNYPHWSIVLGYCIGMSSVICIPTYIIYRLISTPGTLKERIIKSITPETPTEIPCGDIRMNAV
T1 sequence (P23977 whole entry): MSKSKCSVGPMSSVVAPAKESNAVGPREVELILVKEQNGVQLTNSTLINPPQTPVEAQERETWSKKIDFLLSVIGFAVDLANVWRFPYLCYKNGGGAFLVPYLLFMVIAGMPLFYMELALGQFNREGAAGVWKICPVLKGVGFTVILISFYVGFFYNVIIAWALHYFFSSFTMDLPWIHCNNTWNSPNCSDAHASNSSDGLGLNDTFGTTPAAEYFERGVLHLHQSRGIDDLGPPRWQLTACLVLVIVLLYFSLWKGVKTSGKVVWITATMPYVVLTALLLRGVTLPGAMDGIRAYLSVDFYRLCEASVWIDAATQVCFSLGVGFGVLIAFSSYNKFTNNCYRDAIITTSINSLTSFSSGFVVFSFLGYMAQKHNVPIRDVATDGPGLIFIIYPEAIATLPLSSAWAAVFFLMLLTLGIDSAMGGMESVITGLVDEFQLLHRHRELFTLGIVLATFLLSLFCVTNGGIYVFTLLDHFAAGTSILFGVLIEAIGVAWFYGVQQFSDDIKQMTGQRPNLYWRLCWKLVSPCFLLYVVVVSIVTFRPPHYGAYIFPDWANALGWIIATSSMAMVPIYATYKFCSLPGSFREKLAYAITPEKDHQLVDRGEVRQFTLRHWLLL

With `CN1CCC2(CC=C(c3cc4ccccc4s3)CC2)CC1` [9-Benzo[b]thiophen-2-yl-3-methyl-3-aza-spiro[5.5]undec-8-ene], the melting point is 89.7 to 91.2 °C.

`Clc1ccc(C2=CCC3(CCNCC3)CC2)cc1` yielded a melting point of 104.2 to 107.1 °C.

For the compound `C1=C(c2ccc3ccccc3c2)CCC2(C1)CCNCC2` [9-Naphthalen-2-yl-3-aza-spiro[5.5]undec-8-ene], the melting point is 137.1 to 141.3 °C.

In the case of `Brc1cccc(C2=CCC3(CCNCC3)CC2)n1` [2nd last compound of method A, 9-(6-Bromo-pyridin-2-yl)-3-aza-spiro[5.5]undec-8-ene], the melting point lay within 161.3 to 162.8 °C. Further, the IC50 in data set [1] stood at 2000 nM. Further, the IC50 in data set [2] was found to be 1000 nM. For the same compound, it took 18 nM to reach half-maximal inhibition in data set [3] (IC50).

`COc1ccc2cc(C3=CCC4(CCNCC4)CC3)ccc2c1` [4th compound of method A, 9-(6-Methoxy-naphthalen-2-yl)-3-aza-spiro[5.5]undec-8-ene] came in with a melting point of 146.9 to 149.5 °C. For the same compound, the IC50 in data set [1] stood at 38 nM. The IC50 in data set [2] came out at 120 nM. In addition, in data set [3] (setting [4]), the IC50 was found to be 16 nM.

As to `COc1ccc2cc(C3=CCC4(CC3)CCN(C)CC4)ccc2c1` [9-(6-Methoxy-naphthalen-2-yl)-3-methyl-3-aza-spiro[5.5]undec-8-ene], the melting point fell in the range of 146.9 to 149.5 °C.

The compound `COc1cc(C2=CCC3(CCNCC3)CC2)ccc1Cl` [9-(4-Chloro-3-methoxy-phenyl)-3-aza-spiro[5.5]undec-8-ene] yielded a melting point of 182 to 185 °C.

`CN1CCC2(CC=C(c3cc4ccccc4o3)CC2)CC1.O=C(O)/C=C/C(=O)O` gave a melting point of 224.2 to 226.1 °C.

Take `C1=C(c2cc3ccccc3o2)CCC2(C1)CCNCC2.O=C(O)C(F)(F)F`: the melting point fell in the range of 215.7 to 217.3 °C.

As for `C1=C(c2cc3ccccc3s2)CCC2(C1)CCNCC2` [2nd compound of method A, 9-Benzo[b]thiophen-2-yl-3-aza-spiro[5.5]undec-8-ene], the melting point lay within 107.3 to 110.2 °C. Further, in data set [1], the IC50 amounted to 1200 nM. Further, the half-inhibitory concentration (IC50) in data set [2] is 580 nM. Further, the IC50 in data set [3] (setting [4]) came to 20 nM.
